Like-named read-outs stand apart in the source and are kept apart here.
Tests used:
[1] = tested on: Aβ40 in conditioned medium of cells stably expressing Amyloid Precursor Protein (APP); experiment: In vitro BACE cell-based assay (HEK cell assay), Aβ40 sandwich ELISA; settings: Homo sapiens, HEK293
Protocol: In Vitro BACE Cell-Based Assay
The cell-based assay measures inhibition or reduction of Aβ40 in conditioned medium of test compound treated cells expressing amyloid precursor protein.
Cells stably expressing Amyloid Precursor Protein (APP) were plated at a density of 40K cells/well in 96 well plates (Costar). The cells were cultivated for 24 hours at 37C. and 5% CO2 in DMEM supplemented with 10% FBS. The test compounds were then added to cells in 10-point dose response concentrations with the starting concentration being either 100 μM or 10 μM. The compounds were diluted from stock solutions in DMSO and the final DMSO concentration of the test compounds on cells was 0.1%. After 24 h of incubation with the test compounds the supernatant conditioned media was collected and the Aβ 40 levels were determined using a sandwich ELISA. The IC50 of the compound was calculated from the percent of control or percent inhibition of Aβ 40 as a function of the concentration of the test compound.
The sandwich ELISA to detect Aβ 40 was performed in 96 well microtiter plates, which were pre-treated with goat anti-rabbit IgG (Pierce). The capture and detecting antibody pair that were used to detect Aβ 40 from cell supernatants were affinity purified pAb40 (Biosource) and biotinylated 6E10 (Signet Labs Inc.), respectively. The optimal concentration for the pAb40 antibody was 3 μg/ml in Superblock/TBS (Pierce) that was supplemented with 0.05% Tween 20 (Sigma). Optimal concentration for the detection antibody 6E10-biotinylated was 0.5 μg/ml in Superblock/TBS (Pierce) that had been supplemented with 2% normal goat serum and 2% normal mouse serum.
Cellular supernatants were incubated with the capture antibody for 3 h at 4° C., followed by 3 wash steps in TBS-tween (0.05%). The detecting antibody incubation was for 2 h at 4° C., again followed by the wash steps as described previously. The final readout of the ELISA is Time-Resolved Fluorescence (counts per minute) using Delfia reagents Streptavidin-Europium and Enhancement solutions (Perkin Elmer) and the Victor 2 multilabel counter (Perkin Elmer).

Cathepsin D (Cat D) = target: T1, Cathepsin D (Cat D) (Homo sapiens, UniProt P07339); experiment: In vitro enzymatic Cathepsin D (Cat D) FRET assay; format: biochemical; settings: read-out: CatD IC50
T1 construct: Recombinant Cat D was expressed in CHO cells; made in house; host or cells: CHO cells
Protocol: In Vitro Enzymatic Cathepsin D (Cat D) FRET (Fluorescence Resonance Energy Transfer) Assay Recombinant Cat D was expressed in CHO cells. […] The Cat D enzyme (9 nM) is pre-incubated for one hour with inhibitors, typically in about 1 uL of DMSO according to a serial dilution, is added thereto. […] The FRET assay is terminated with by addition of Tris buffer, which raises the pH to neutrality, and the fluorescence is determined. The FRET substrate is a peptide with commercially available fluorophore and quencher, on opposite sides of the BACE cleavage site. The Cat D substrate peptide sequence is based on sequence #1 of Table 1 from Gulnik et al. […] Alternatively, a Cat D assay may also be run according to the procedure described in the article, Characterization of new fluorgenic substrates for the rapid and sensitive assay of cathepsin E and cathepsin D, J. Biochem., 125:1137, 1999. In addition, the cathepsin D and cathepsin E assays are described in PCT publication WO2011069934. This WIPO publication describes BACE inhibitor compounds having an amide linker connecting two aromatic groups with extremely poor cathepsin D and/or cathepsin E inhibitory activity (see Table 2). Where available, the in-vitro Cat D FRET assay data for each of the Examples, conducted by the first procedure, is provided.

[2] = target: Beta Secretase enzyme (BACE1) (Homo sapiens, UniProt P56817); experiment: In vitro enzymatic BACE FRET assay; format: biochemical; settings: read-out: BACE1 FRET assay IC50
Protocol: In Vitro Enzymatic BACE FRET (Fluorescence Resonance Energy Transfer) Assay (Enzyme Assay Data in the Example Tables I and II)
The assay buffer used in this screen is 0.05 M acetate, pH 4.2, 10% DMSO final, 100 uM genapol (which is a nonionic detergent, below its Critical Micelle Concentration). […] This assay is effectively started by the addition of FRET substrate (50 nM) and the combination is incubated for one hour. The FRET assay is terminated with by addition of Tris buffer, which raises the pH to neutrality, and the fluorescence is determined. The FRET substrate is a peptide with commercially available fluorophore and quencher, on opposite sides of the BACE cleavage site. Proteolytic cleavage of the FRET substrate releases quenching of fluorescence (excitation […] and […]).

Chain of Beta Secretase enzyme (BACE1) (P56817 46-501): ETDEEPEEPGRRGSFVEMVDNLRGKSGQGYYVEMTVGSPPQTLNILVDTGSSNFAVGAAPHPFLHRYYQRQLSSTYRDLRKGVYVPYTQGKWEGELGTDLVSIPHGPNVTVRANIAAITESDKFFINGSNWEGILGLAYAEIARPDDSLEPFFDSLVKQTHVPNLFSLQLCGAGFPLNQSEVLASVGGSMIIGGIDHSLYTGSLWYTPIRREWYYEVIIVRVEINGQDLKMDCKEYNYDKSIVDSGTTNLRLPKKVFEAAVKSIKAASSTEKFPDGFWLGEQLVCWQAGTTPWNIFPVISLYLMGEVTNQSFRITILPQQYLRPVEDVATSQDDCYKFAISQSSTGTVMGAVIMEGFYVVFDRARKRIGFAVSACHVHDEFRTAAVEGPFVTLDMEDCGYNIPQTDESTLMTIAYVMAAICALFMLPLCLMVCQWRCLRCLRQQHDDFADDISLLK
T1 sequence (P07339 65-412, species assumed): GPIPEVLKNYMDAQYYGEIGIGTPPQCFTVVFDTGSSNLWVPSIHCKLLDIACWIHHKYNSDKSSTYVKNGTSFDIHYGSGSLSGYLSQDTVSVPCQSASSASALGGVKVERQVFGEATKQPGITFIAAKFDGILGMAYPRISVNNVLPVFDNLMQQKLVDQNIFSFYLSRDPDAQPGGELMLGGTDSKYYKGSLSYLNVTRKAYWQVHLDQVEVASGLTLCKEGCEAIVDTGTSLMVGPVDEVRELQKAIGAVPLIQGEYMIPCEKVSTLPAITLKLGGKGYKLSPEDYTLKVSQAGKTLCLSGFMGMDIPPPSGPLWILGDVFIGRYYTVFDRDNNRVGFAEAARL

Row | SMILES | IC50 ([1]; Aβ40, 24 h incubation) [µM] | IC50 (Cathepsin D (Cat D)) [µM] | also measured
1 | COc1cnc(C(=O)Nc2ccc(F)c(C3(C(F)(F)F)CS(=O)(=O)C(C)(C)C(N)=N3)c2)cn1 (stereo in doubt) [Example 34, N-(3-((3R)-5-amino-6,6-dimethyl-1,1-dioxido-3-(trifluoromethyl)-3,6-dihydro-2H-1,4-thiazin-3-yl)-4-fluorophenyl)-5-methoxy-2-pyrazinecarboxamide] | > 10 |  | 
2 | COc1cnc(C(=O)Nc2ccc(F)c([C@]3(C)CS(=O)(=O)C(C)(C)C(N)=N3)c2)cn1 [Example 17, N-(3-((3R)-5-amino-3,6,6-trimethyl-1,1-dioxido-3,6-dihydro-2H-1,4-thiazin-3-yl)-4-fluorophenyl)-5-methoxy-2-pyrazinecarboxamide] | 0.0022 | > 400 | 
3 | CC1(C)C(N)=N[C@](C)(c2cc(NC(=O)c3ccc(Cl)cn3)ccc2F)CS1(=O)=O [Example 19, N-(3-((3R)-5-amino-3,6,6-trimethyl-1,1-dioxido-3,6-dihydro-2H-1,4-thiazin-3-yl)-4-fluorophenyl)-5-chloro-2-pyridinecarboxamide] | 0.0014 | 240 | 
4 | COc1cnc(C(=O)Nc2ccc(F)c([C@]3(C)CSCC(N)=N3)c2)cn1 [Example 43, (R)—N-(3-(5-amino-3-methyl-3,6-dihydro-2H-1,4-thiazin-3-yl)-4-fluorophenyl)-5-methoxypyrazine-2-carboxamide] | 0.007 |  | 
5 | COc1cnc2c(Nc3cnc(F)c([C@]4(C)CS(=O)(=O)C(C)(C)C(N)=N4)c3)nccc2c1 [Example 66, N-(5-((3R)-5-amino-3,6,6-trimethyl-1,1-dioxido-3,6-dihydro-2H-1,4-thiazin-3-yl)-6-fluoro-3-pyridinyl)-3-methoxy-1,7-naphthyridin-8-amine] | 0.0067 |  | 
6 | COc1cc(C)ccc1Oc1ccc(F)c([C@]2(C)CS(=O)(=O)C(C)(C)C(N)=N2)c1 [Example 97, (R)-5-amino-3-(2-fluoro-5-(2-methoxy-4-methylphenoxy)phenyl)-3,6,6-trimethyl-3,6-dihydro-2H-1,4-thiazine 1,1-dioxide] | 6.86 | 182 | 
7 | CC1(C)C(N)=N[C@](C)(c2cc(NC(=O)c3nn(C(F)F)cc3Cl)ccc2F)CS1(=O)=O [Example 106, (R)—N-(3-(5-amino-3,6,6-trimethyl-1,1-dioxido-3,6-dihydro-2H-1,4-thiazin-3-yl)-4-fluorophenyl)-4-chloro-1-(difluoromethyl)-1H-pyrazole-3-carboxamide] |  | 112 | IC50 [2]: 0.00174 µM
8 | CC1(C)C(N)=N[C@](C)(c2cc(NCc3nn(C(F)F)cc3Cl)ccc2F)CS1(=O)=O [Example 107, (R)-5-amino-3-(5-(((4-chloro-1-(difluoromethyl)-1H-pyrazol-3-yl)methyl)amino)-2-fluorophenyl)-3,6,6-trimethyl-3,6-dihydro-2H-1,4-thiazine 1,1-dioxide] |  | 81.1 | IC50 ([2]; average IC50, enzyme assay): 0.00227 µM
9 | C[C@@]1(c2cc(Br)ccc2F)CS(=O)(=O)C2(CC(O)C2)C(N)=N1 (stereo partly drawn) [Example 112, (R)-9-amino-7-(5-bromo-2-fluorophenyl)-2-hydroxy-7-methyl-5-thia-8-azaspiro[3.5]non-8-ene 5,5-dioxide] |  | 37.3 | IC50 ([2]; average IC50, enzyme assay): 1.19 µM
10 | C[C@@]1(c2cc(Br)ccc2F)CS(=O)(=O)C2(CCC2)C(N)=N1 [Example 113, (R)-9-amino-7-(5-bromo-2-fluorophenyl)-7-methyl-5-thia-8-azaspiro[3.5]non-8-ene 5,5-dioxide] |  | 30 | IC50 ([2]; average IC50, enzyme assay): 4.05 µM
11 | CC1(C)C(N)=N[C@@]2(c3cc(Nc4nccc5cc(Cl)cnc45)ccc3F)C[C@H]2S1(=O)=O [Example 183, (1R,6R)-4-amino-6-(5-((3-chloro-1,7-naphthyridin-8-yl)amino)-2-fluorophenyl)-3,3-dimethyl-2-thia-5-azabicyclo[4.1.0]hept-4-ene 2,2-dioxide] |  | 87.9 | IC50 ([1]; average IC50, cell assay): 4.74 µM
12 | CC1(C)C(N)=NC2(c3cc(Br)ccc3F)COCC2S1(=O)=O (stereo not shown) [Example 185, 3-amino-4a-(5-bromo-2-fluorophenyl)-2,2-dimethyl-4a,5,7,7a-tetrahydro-2H-furo[3,4-b][1,4]thiazine 1,1-dioxide] |  |  | IC50 ([1]; average IC50, cell assay): > 15.6 µM
13 | CC1(C)C(N)=N[C@@]2(c3cc(Br)ccc3F)COC[C@H]2S1(=O)=O [Example 185a, (4aS,7aS)-3-amino-4a-(5-bromo-2-fluorophenyl)-2,2-dimethyl-4a,5,7,7a-tetrahydro-2H-furo[3,4-b][1,4]thiazine 1,1-dioxide] |  |  | IC50 ([1]; average IC50, cell assay): > 15.6 µM
14 | CC1(C)C(N)=N[C@]2(c3cc(Br)ccc3F)COC[C@@H]2S1(=O)=O [Example 185b, (4aR,7aR)-3-amino-4a-(5-bromo-2-fluorophenyl)-2,2-dimethyl-4a,5,7,7a-tetrahydro-2H-furo[3,4-b][1,4]thiazine 1,1-dioxide] |  |  | IC50 ([1]; average IC50, cell assay): > 15.6 µM
15 | CC1(C)C(N)=N[C@@]2(c3cc(N)ccc3F)COC[C@H]2S1(=O)=O [Example 185c, (4aS,7aS)-3-amino-4a-(5-amino-2-fluorophenyl)-2,2-dimethyl-4a,5,7,7a-tetrahydro-2H-furo[3,4-b][1,4]thiazine 1,1-dioxide] |  |  | IC50 ([1]; average IC50, HEK cells): > 15.6 µM
16 | CC1(C)C(N)=N[C@]2(c3cc(N)ccc3F)COC[C@@H]2S1(=O)=O [Example 185d, (4aR,7aR)-3-amino-4a-(5-amino-2-fluorophenyl)-2,2-dimethyl-4a,5,7,7a-tetrahydro-2H-furo[3,4-b][1,4]thiazine 1,1-dioxide] |  |  | IC50 ([1]; average IC50, HEK cells): > 15.6 µM
17 | CC1(C)C(N)=N[C@](C)(c2cc(Nc3nccc4nc(C(F)(F)F)cnc34)ccc2F)C(F)S1(=O)=O (stereo partly drawn) [Example 227, N-(3-((3R)-5-amino-2-fluoro-3,6,6-trimethyl-1,1-dioxido-3,6-dihydro-2H-1,4-thiazin-3-yl)-4-fluorophenyl)-2-(trifluoromethyl)pyrido[3,4-b]pyrazin-5-amine] |  | > 44.4 | IC50 ([2]; average IC50, enzyme assay): 0.00659 µM
18 | CC1(C)C(N)=N[C@](C)(c2cc(Nc3ncnc4cc(Cl)cnc34)ccc2F)C(F)S1(=O)=O (stereo partly drawn) [Example 228, N-(3-((3R)-5-amino-2-fluoro-3,6,6-trimethyl-1,1-dioxido-3,6-dihydro-2H-1,4-thiazin-3-yl)-4-fluorophenyl)-7-chloropyrido[3,2-d]pyrimidin-4-amine] |  | 58.9 | IC50 ([2]; average IC50, enzyme assay): 0.00328 µM
19 | CC1(C)C(N)=N[C@](C)(c2cc(OCc3ccccc3)ccc2F)CS1(=O)=O [Example 301, (5R)-5-(5-(benzyloxy)-2-fluorophenyl)-2,2,5-trimethyl-5,6-dihydro-2H-1,4-thiazin-3-amine 1,1-dioxide] |  | 184 | IC50 ([1]; average IC50, HEK cell assay): 1.06 µM
20 | CC1(C)C(N)=N[C@](CF)(c2cc(Nc3nncc4cc(Cl)ccc34)ccc2F)CS1(=O)=O [Example 450, N-(3-((3S)-5-amino-3-(fluoromethyl)-6,6-dimethyl-1,1-dioxido-3,6-dihydro-2H-1,4-thiazin-3-yl)-4-fluorophenyl)-6-chloro-1-phthalazinamine] |  |  | IC50 ([1]; average IC50, cell assay): 0.7 µM

Reference: patent US20140107109A1, “AMINO-DIHYDROTHIAZINE AND AMINO-DIOXIDO DIHYDROTHIAZINE COMPOUNDS AS BETA-SECRETASE ANTAGONISTS AND METHODS OF USE” (Amgen Inc., priority 2012, published 2014)
